Measured values published in patent US20030187000A1, “Inhibitors for de novo-RNA polymerases and methods of identifying targets for same” (priority 2002, published 2003).

Molecular target: T1, NS5B (Hepatitis C virus genotype 1b, UniProt P26663)
T1 construct: the RNA dependent RNA polymerase from hepatitis C virus (NS5B)
Test: Binding studies of thiomethylsulfonate derivatives
Conditions: among heterocyclic/aromatic-substituted thiomethylsulfonate derivatives of FIG. 1
Excerpt: Cys366 was modified by both compounds (i.e., BMTS and MMTS) and is located in the proximity of the primer-binding site (i.e., initiation nucleotide binding site) of the enzyme. […] Based on these observations, it should especially be recognized that specific modification of Cys366 near the primer-binding site may advantageously be employed for rational inhibitor design. Furthermore, it is contemplated that second-generation compounds may even operate without involvement of the Cys366 (i.e., without formation of a covalent bond) by targeting only the small pocket of the NS5B. To explore the binding affinity and specificity to the cysteines near the active sites of NS5B, a exemplary heterocyclic/aromatic-substituted thiomethylsulfonate derivatives were designed and synthesized as depicted in FIG. 1. […] This compound was also soaked into the polymerase NS5B.

T1 sequence (P26663 2420-3010): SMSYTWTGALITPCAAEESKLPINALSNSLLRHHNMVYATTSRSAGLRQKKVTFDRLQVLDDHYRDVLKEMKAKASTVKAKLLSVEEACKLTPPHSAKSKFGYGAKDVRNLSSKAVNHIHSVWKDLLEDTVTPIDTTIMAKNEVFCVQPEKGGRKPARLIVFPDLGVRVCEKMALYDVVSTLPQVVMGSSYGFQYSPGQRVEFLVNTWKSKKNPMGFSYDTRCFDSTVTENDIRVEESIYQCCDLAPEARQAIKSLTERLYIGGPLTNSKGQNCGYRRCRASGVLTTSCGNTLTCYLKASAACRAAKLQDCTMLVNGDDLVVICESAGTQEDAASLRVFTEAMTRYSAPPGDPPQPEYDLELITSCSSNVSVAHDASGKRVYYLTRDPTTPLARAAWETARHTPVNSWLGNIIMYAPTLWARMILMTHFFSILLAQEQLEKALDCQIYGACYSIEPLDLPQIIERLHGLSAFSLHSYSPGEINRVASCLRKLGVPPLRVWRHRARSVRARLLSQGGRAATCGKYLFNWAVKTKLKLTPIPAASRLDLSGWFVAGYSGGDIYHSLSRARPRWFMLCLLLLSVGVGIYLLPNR

CS(=O)(=O)SCc1ccc(Cl)s1 [(5-chlorothiophen-2-yl)methylthiomethylsulfonate]
binding affinity: highest binding affinity
